ChEMBL document CHEMBL4476871, “SULFAMIDE AND SULFAMATE INHIBITORS OF hHint1” (2018)
Calls of active or inactive are those of the source. The rule behind the calls is not given here.

Key:
[1] = target: Adenosine 5'-monophosphoramidase HINT1 (Homo sapiens) (UniProt P49773); assay: Inhibition of human N-terminal His6-tagged Hint1 expressed in Escherichia coli Rosetta 2 pLysS cells by fluorescence assay
Mus musculus [2] = assay: Analgesic activity in ICR mouse model of spared nerve injury assessed as reduction in mechanical hypersensitivity at 1 nmol administered intrathecally 7 days post spared nerve injury measured after 4 hrs by Von Frey test; assay type: functional, organism-based
Mus musculus [3] = assay: Analgesic activity in ICR mouse model of spared nerve injury assessed as reduction in mechanical hypersensitivity at 1 nmol administered intrathecally prior to spared nerve injury by Von Frey test; assay type: functional, organism-based
Mus musculus [4] = assay: Analgesic activity in ICR mouse model of spared nerve injury assessed as reduction in mechanical hypersensitivity at 1 nmol administered intrathecally 7 days post spared nerve injury by Von Frey test; assay type: functional, organism-based

Sequence of Adenosine 5'-monophosphoramidase HINT1 (Homo sapiens) (P49773 whole entry): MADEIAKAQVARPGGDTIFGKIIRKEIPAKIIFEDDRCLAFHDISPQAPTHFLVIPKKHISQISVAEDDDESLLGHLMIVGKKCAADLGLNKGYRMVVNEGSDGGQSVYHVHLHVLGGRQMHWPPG

inhibition [1]	Compound	Activity (Mus musculus [2])	Activity (Mus musculus [3])	Activity (Mus musculus [4])
Dose-dependent effect	Nc1ncnc2c1ncn2[C@@H]1O[C@H](CNS(=O)(=O)NC(=O)CCCC[C@@H]2SC[C@@H]3NC(=O)N[C@@H]32)[C@@H](O)[C@H]1O			
	O=C(CCc1c[nH]c2ccccc12)NS(=O)(=O)OC[C@H]1O[C@@H](n2cnc3c2ncn2ccnc32)[C@@H](O)C1O (stereo partly specified)	Active	inactive	
Dose-dependent effect	Nc1nc2c(ncn2[C@@H]2O[C@H](COC(=O)NCCc3c[nH]c4ccccc34)[C@@H](O)[C@H]2O)c(=O)[nH]1		Active	Active
